Data: patent publication US20090253634A1, “Methods and Compositions for the Treatment of Gastrointestinal Disorders” (MICROBIA, INC., priority 2005, published 2009)
Bridge positions count the residues as written; N and C are the ends. Peptide text beside a SMILES is read from it.

Tests used:
[1] = oral bioavailability in mice, radioimmunoassay (RIA) detection; design: species or system CD-1 mice; conditions: female, CD-1, mouse, in vivo, 8 mg/kg intravenous, read-out: AUCi.v.,(0-4h) (converted)
Protocol: Oral bioavailability was also determined using a radioimmunoassay (RIA) detection method. Female CD-1 mice (Charles River, Wilmington, Mass.) weighing approximately 25g (7-8 weeks old) or female CD rats (Charles River, Wilmington, Mass.) weighing approximately 153 g were included in this study. Monoclonal antibody, 20C1 (Brandwein et al. 1985 Infect Immun. 47:242-246), which recognizes SEQ ID NO:7 and ^125I labeled-SEQ ID NO:7, a labeled tracer, were used in these experiments. The labeled tracer was purified by HPLC using a Waters C-18u Bondapak® column (25 cm) previously equilibrated with 10 mM ammonium acetate pH 5.8. […] Blood was drawn from all dosed animals by retro-orbital eye bleeding at specific intervals and test compound levels were analyzed by radioimmunoassay (RIA). […] Radioactivity was measured in a LS 6500 scintillation counter (Beckman-Coulter). The binding efficiency is defined as the percent radioactivity in the B0 sample compared to the input counts. The percent bound in each sample was calculated by the equation: […]
A standard curve was prepared by plotting % B/B0 as a function of the log SEQ ID NO:3 concentration. […] The area under the curve from T=0 to 4 hours (AUC0-4h) was calculated by the software for both p.o. and i.v. dosed animals. […] Oral Bioavailabilty (F) is calculated using the equation: […]

[2] = stability in simulated gastric fluid (SGF); assay type: in vitro ADME; conditions: pH 1, 37° C., up to 3 h
Protocol: All samples were analyzed by LC/MS
The reference control sample was diluted 10-fold (1000 μL volume) in distilled water for a final concentration of 10 μM and chilled on ice. At each time point, samples were diluted 10-fold (1000 μL volume) in distilled water for an expected concentration of 10 μM, and chilled on ice, until analysis.

[3] = tested on: intestinal transit after abdominal surgery; assay: rat model of postoperative ileus; assay type: in vivo, CD rats; conditions: oral 10 μg/kg, 20 minutes after charcoal meal
Protocol: Female CD rats were used to test the effect of SEQ ID NO:3 on delayed transit induced by abdominal surgery and manual manipulation of the small intestine. Groups of at least nine rats underwent abdominal surgery under isoflurane anesthesia. Surgery consisted of laparotomy and 5 minutes of gentle manual intestinal massage. Following recovery from anesthesia, rats were dosed orally with either 10 μg/kg SEQ ID NO:3 or vehicle (20 mM Tris) in a volume of 300 μl. 1 hour after dosing, intestinal transit rate was measured. Animals were again dosed with 300 μl of the test article followed immediately by 500 μl of a charcoal meal (10% charcoal, 10% gum arabic in water). To calculate the distance of the small intestine traveled by the charcoal front, after 20 minutes, the total length of the intestine as well as the distance traveled from the stomach to the charcoal front were measured for each animal. Animals dosed with 10 μg/kg SEQ ID NO:3 experienced an increase in transit following abdominal surgery compared to animals dosed with vehicle alone (FIG. 16). Charcoal transit in SEQ ID NO:3 dosed animals was measured at 37.3+3.0% (mean±SEM) of the small intestine compared with vehicle at 24.7+1.4% (mean±SEM) of the small intestine.

C[C@@H]1NC(=O)[C@@H]2CCCN2C(=O)[C@H](CC(N)=O)NC(=O)[C@@H]2CSSC[C@H](N)C(=O)N[C@H]3CSSC[C@H](NC1=O)C(=O)N[C@@H]([C@@H](C)O)C(=O)NCC(=O)N[C@H](C(=O)N[C@@H](Cc1ccc(O)cc1)C(=O)O)CSSC[C@H](NC(=O)[C@H](Cc1ccc(O)cc1)NC(=O)[C@H](CCC(=O)O)NC3=O)C(=O)N2 [SEQ ID NO:3] (H-CCEYCCNPACTGCY-OH; disulfide 1-6, 2-10, 5-13; N-terminus and C-terminus assumed)
AUC [1]: 27700 ng·h/mL
Cleavage of SEQ ID NO: 3 by proteolytic substance [2]: not detectable
Charcoal transit, of the small intestine (mean±SEM) [3]: 37.3 ± 3.0%
